Measured values published in patent US20170291890A1 (Epizyme, Inc., priority 2014, published 2017).

biological target: T1, KDM4A (Homo sapiens, UniProt O75164); test: KDM4A Assay (SAMDI mass spectrometry demethylase assay); format: biochemical; conditions: N-terminal His-tagged KDM4A 1-350; class symbols; read-out: 4A IC50
T1 construct: N-terminal His-tagged KDM4A^1-350 was purchased from BPS Biosciences; His (N); purchased BPS Biosciences
T1 sequence (O75164 1-350): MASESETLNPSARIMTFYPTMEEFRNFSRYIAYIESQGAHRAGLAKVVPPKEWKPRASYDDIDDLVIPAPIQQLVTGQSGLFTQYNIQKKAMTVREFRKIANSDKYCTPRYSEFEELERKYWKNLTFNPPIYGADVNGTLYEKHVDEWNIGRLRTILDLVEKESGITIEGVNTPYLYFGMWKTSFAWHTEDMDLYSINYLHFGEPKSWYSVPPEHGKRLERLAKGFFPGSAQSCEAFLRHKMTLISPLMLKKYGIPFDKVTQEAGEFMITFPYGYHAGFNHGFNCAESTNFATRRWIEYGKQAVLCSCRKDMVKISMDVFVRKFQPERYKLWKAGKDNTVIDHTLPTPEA
How it was run: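 His-tagged KDM4A 1-350 (5 nM final) was preincubated 30 min with compound (10 μM final for screening) in 50 mM HEPES pH 8.0 with ascorbate, 10 μM Fe(II) and TCEP. Biotinylated Kme2 peptide (600 nM) and 2-oxoglutarate (5 μM) reacted 120 min at 25°C before a formic acid stop. SAMDI-MS % conversion from substrate and product peak areas; IC50 from dose-response.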

SMILES | IC50
Cc1c(Nc2cnccc2C(=O)O)cnn1C1CCN(CC2CC2)CC1 [Compound 90, 3-(1-(1-(cyclopropylmethyl)piperidin-4-yl)-5-methyl-1H-pyrazol-4-ylamino) isonicotinic acid] | 100 to 1000 nM
Cn1nc(Nc2cnccc2C(=O)O)cc1-c1ccccc1 [Compound 5] | 100 to 1000 nM
O=C(O)c1ccncc1Nc1nn(-c2ccccc2)cc1-c1ccncc1 [Compound 88, 3-((1-phenyl-4-(pyridin-4-yl)-1H-pyrazol-3-yl)amino) isonicotinic acid] | 100 to 1000 nM
Cc1nn(C2CCN(C3CCC3)CC2)cc1Nc1cnccc1C(=O)O [Compound 94, 3-(1-(1-cyclobutylpiperidin-4-yl)-3-methyl-1H-pyrazol-4-ylamino)isonicotinic acid] | 1 to 100 nM
COC(=O)c1ccncc1Nc1cn(C2CCN(C3CCC3)CC2)nc1C [Compound 93, methyl 3-((1-(1-cyclobutylpiperidin-4-yl)-3-methyl-1H-pyrazol-4-yl)amino)isonicotinate] | 10000 to 100000 nM
CCc1c(Nc2cnccc2C(=O)O)cnn1-c1ccccc1 [Compound 81, 3-((5-ethyl-1-phenyl-1H-pyrazol-4-yl)amino)isonicotinic acid] | 1 to 100 nM
NC1CCC(n2nc(-c3cccc(Cl)c3)cc2Nc2cnccc2C(=O)O)CC1 (centres unmarked) [Compound 85, 3-((1-(4-aminocyclohexyl)-3-(3-chlorophenyl)-1H-pyrazol-5-yl)amino)isonicotinic acid] | 1000 to 10000 nM
Cc1nn(C2CCN(C3CN(C)C3)CC2)cc1Nc1cnccc1C(=O)O [Compound 91, 3-(3-methyl-1-(1-(1-methylazetidin-3-yl)piperidin-4-yl)-1H-pyrazol-4-ylamino)isonicotinic acid] | 100 to 1000 nM
NC1CCC(n2nc(Nc3cnccc3C(=O)O)cc2-c2cccc(Cl)c2)CC1 (centres unmarked) [Compound 87, 3-((1-(4-aminocyclohexyl)-5-(3-chlorophenyl)-1H-pyrazol-3-yl)amino)isonicotinic acid] | 10000 to 100000 nM
Cc1c(Nc2cnccc2C(=O)O)cnn1C1CCN(C2CN(C)C2)CC1 [Compound 92, 3-(5-methyl-1-(1-(1-methylazetidin-3-yl)piperidin-4-yl)-1H-pyrazol-4-ylamino)isonicotinic acid] | 100 to 1000 nM

Other lines, results leading:

IC50 | SMILES
10000 to 100000 nM | COC(=O)c1ccncc1Nc1cnn(C2CCN(C3CCC3)CC2)c1C [Compound 95, methyl 3-((1-(1-cyclobutylpiperidin-4-yl)-5-methyl-1H-pyrazol-4-yl)amino)isonicotinate]
100 to 1000 nM | O=C(O)c1ccncc1Nc1cc(-c2cccc(Cl)c2)n(C2CCC3(CC2)OCCO3)n1 [Compound 86, 3-((5-(3-chlorophenyl)-1-(1,4-dioxaspiro[4.5]decan-8-yl)-1H-pyrazol-3-yl)amino)isonicotinic acid]
1 to 100 nM | Cc1nn(C2CCN(CC3CC3)CC2)cc1Nc1cnccc1C(=O)O [Compound 89, 3-(1-(1-(cyclopropylmethyl)piperidin-4-yl)-3-methyl-1H-pyrazol-4-ylamino)isonicotinic acid]
1 to 100 nM | Cc1ccc(-n2cc(Nc3cnccc3C(=O)O)c(C)n2)cc1 [Compound 82]
100 to 1000 nM | Cc1nn([C@H]2CC[C@@H](N)CC2)cc1Nc1cnccc1C(=O)O [Compound 80, 3-((1-((cis)-4-aminocyclohexyl)-3-methyl-1H-pyrazol-4-yl)amino)isonicotinic acid]
1000 to 10000 nM | Cn1ncc(-c2cccnc2)c1Nc1cnccc1C(=O)O [Compound 4]

same assay, conditions: N-terminal His-tagged KDM4A 1-350; numeric value; read-out: 4A IC50

IC50 | SMILES
1490 nM | CN1CCC(n2ncc(Nc3cnccc3C(=O)O)c2-c2ccccc2)CC1 [Compound 126, 3-(1-(1-methylpiperidin-4-yl)-5-phenyl-1H-pyrazol-4-ylamino) isonicotinic acid]
